Source: a melting point compilation (Tetko et al.; mined from patent text by program, amines drawn as free bases though some values may be those of a salt)

Structure (SMILES)	melting point [°C]
NC(C(=O)O)c1ccsc1 (configuration not stated)	283 to 285
Cc1ccc(-c2cn3cc(C(F)(F)F)ccc3n2)cc1	187 to 188
O=C(NNc1ccccc1)c1ccc(F)cc1F	171 to 173
CCC1=C(C#N)C(c2ccccc2OC)c2c[nH]nc2N1 (configuration not stated)	230 to 232
COc1cccc(COc2ncc(F)c(NS(N)(=O)=O)n2)c1	126 to 130
Cc1ccc(C(=O)Nc2nc(=O)n(C)cc2F)cc1	229 to 230
O=C(O)c1ccc2c(c1)Nc1ccccc1S2	> 235
c1ccc(C(=C2CCNCC2)c2ccccc2)cc1	85 to 86

Second part, the compound after the results:

melting point [°C]	Structure (SMILES)
215 to 217	CC(CCCC(C)(C)O)C1CCC2C3CCC4(O)CC(=O)CCC4(C)C3CCC12C (configuration not stated)
100 to 101	CCCCCCc1sc(C(N)=O)c2c1-c1c(cnn1C)CC2
66 to 68	CCOC(=O)c1cc(Cl)c(OCc2ccccc2)c(Cl)c1
193 to 194	Nc1cc(C(=O)Nc2ccncc2)ccc1OCC1CCCCC1
94 to 96	Cc1nc2c(s1)C(=O)C=C(NCCCN(C)CCCNC1=CC(=O)c3sc(C)nc3C1=O)C2=O
72	C#CCn1c(C(F)(F)F)c(C(=O)OCC)oc1=O
101 to 106	C#Cc1cc(=O)n2nc(S(=O)(=O)Cc3ccccc3)sc2n1
127 to 130	CCCOC(C)c1cccc2[nH]c3cnc(C(=O)OCC)c(COC)c3c12 (configuration not stated)
204 to 206	COc1cc(C(=O)NS(=O)(=O)c2ccccc2Cl)ccc1Cc1c(Cl)n(C)c2ccc(CCNC(=O)N(C)C)cc12
